Structures are written as SMILES. Bounds are passed on as bounds.

The first experiment deals with PIK3CA (human) (UniProt P42336). Briefly: Cell-Based Assay. The conditions noted are these: mda-mb-361.
Sequence of PIK3CA (human) (P42336 whole entry, looked up): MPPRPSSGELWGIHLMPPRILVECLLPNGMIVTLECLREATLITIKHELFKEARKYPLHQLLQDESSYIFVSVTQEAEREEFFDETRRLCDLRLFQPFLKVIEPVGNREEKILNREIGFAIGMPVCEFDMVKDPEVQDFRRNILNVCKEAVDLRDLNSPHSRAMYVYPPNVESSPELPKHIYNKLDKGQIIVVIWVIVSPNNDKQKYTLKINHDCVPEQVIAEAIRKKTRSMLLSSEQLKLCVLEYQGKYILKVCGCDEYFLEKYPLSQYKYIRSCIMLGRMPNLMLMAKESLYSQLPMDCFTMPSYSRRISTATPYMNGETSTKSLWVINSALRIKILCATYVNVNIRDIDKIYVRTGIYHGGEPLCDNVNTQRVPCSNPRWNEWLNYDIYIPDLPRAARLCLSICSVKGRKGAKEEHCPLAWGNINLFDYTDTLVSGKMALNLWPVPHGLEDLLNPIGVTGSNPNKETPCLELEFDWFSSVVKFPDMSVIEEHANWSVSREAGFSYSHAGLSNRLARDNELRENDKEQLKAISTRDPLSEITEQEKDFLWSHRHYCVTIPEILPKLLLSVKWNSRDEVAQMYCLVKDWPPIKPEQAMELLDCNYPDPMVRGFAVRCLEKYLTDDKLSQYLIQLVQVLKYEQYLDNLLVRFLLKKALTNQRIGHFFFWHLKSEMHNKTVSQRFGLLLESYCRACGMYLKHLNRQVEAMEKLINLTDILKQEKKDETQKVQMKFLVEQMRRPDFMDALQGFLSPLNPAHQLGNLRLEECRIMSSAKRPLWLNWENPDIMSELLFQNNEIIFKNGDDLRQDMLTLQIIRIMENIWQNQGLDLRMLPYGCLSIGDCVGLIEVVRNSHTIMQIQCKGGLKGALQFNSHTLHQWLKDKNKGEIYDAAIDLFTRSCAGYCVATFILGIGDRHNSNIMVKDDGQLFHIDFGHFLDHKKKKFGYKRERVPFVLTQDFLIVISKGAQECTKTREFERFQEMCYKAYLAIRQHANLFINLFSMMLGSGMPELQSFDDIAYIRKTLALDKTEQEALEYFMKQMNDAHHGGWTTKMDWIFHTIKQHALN
In general, IC50 refers to the concentration at which inhibition is half-maximal. Higher therefore signals a need for much substance. Molecule `CC(C)N1CCN(C2CN(c3cnc4ccc(-c5ccc6oc(N)nc6c5)nc4c3)C2)CC1` displayed an IC50 of 100 to 1000 nM. Take `Nc1nc2cc(-c3ccc4ncc(N5CCNC(=O)C5)nc4n3)ccc2o1`: the IC50 was 100 to 1000 nM.

For `CC1(C)CN(C2CN(c3cnc4ccc(-c5ccc6oc(N)nc6c5)nc4n3)C2)CCN1`, the IC50 was 100 to 1000 nM. `CCN1CCN(C2CN(c3cnc4ccc(-c5ccc6oc(N)nc6c5)nc4c3)C2)CC1`: the IC50 was 100 to 1000 nM. Still for that read-out and setting: as for `Nc1nc2cc(-c3ccc4ncc(-c5cccnc5)cc4n3)ccc2o1`, the figure is more than 10000 nM; as for `CC(C)(N)C(=O)N1CCN(c2cnc3ccc(-c4ccc5oc(N)nc5c4)nc3c2)CC1`, 100 to 1000 nM; as for `Nc1nc2cc(-c3ccc4ncc(N5CC(N6CCN(CC7CC7)CC6)C5)cc4n3)ccc2o1`, 100 to 1000 nM.

In turn, `CCOC(=O)N1CCN(c2cnc3ccc(-c4ccc5oc(N)nc5c4)nc3c2)CC1` registered an IC50 of 100 to 1000 nM. Still for that read-out and setting: as for `NCC(=O)N1CCN(c2cnc3ccc(-c4ccc5oc(N)nc5c4)nc3n2)CC1`, the figure is more than 10000 nM; as for `CC1(C)CN(C2CN(c3cnc4ccc(-c5ccc6oc(N)nc6c5)nc4c3)C2)CCN1`, 100 to 1000 nM. Consider `Nc1nc2cc(-c3ccc4ncc(N5CCOCC5)nc4n3)ccc2o1`, for which the IC50 is 100 to 1000 nM. The molecule `CN1CCN(C2CN(c3cnc4ccc(-c5ccc6oc(N)nc6c5)nc4c3)C2)CC1` showed an IC50 of 100 to 1000 nM. Take `Nc1nc2cc(-c3ccc4ncc(N5CC6CCC(C5)O6)nc4n3)ccc2o1`: the IC50 lay within 100 to 1000 nM. The same measure, in the same setting: as for `C[C@@H]1COCCN1c1cnc2ccc(-c3ccc4oc(N)nc4c3)nc2n1`, the figure is 100 to 1000 nM. In turn, `Nc1nc2cc(-c3ccc4ncc(N5C6CCC5COC6)nc4n3)ccc2o1` came in with an IC50 of 100 to 1000 nM. Same read-out and setting: as for `CCOC(=O)N1CCN(c2cnc3ccc(-c4ccc5oc(N)nc5c4)nc3n2)CC1`, the figure is 100 to 1000 nM; as for `Nc1nc2cc(-c3ccc4ncc(N5CC(N6CCN(CCO)CC6)C5)cc4n3)ccc2o1`, 100 to 1000 nM. `C[C@@H]1CN(C2CN(c3cnc4ccc(-c5ccc6oc(N)nc6c5)nc4c3)C2)CCN1` registered an IC50 of 100 to 1000 nM. Take `CN1CCN(C2CN(c3cnc4ccc(-c5ccc6oc(N)nc6c5)nc4c3)C2)CC1=O`: the IC50 was 100 to 1000 nM. As for `Nc1nc2cc(-c3ccc4ncc(N5CC(N6CCNCC6)C5)nc4n3)ccc2o1`, the IC50 is more than 10000 nM.

On to `Nc1nc2cc(-c3ccc4ncc(N5CCC(O)CC5)nc4n3)ccc2o1`, for which the IC50 lay within 100 to 1000 nM. Same read-out and setting: in the case of `Nc1nc2cc(-c3ccc4ncc(N5CCN(C(=O)C6(N)CC6)CC5)cc4n3)ccc2o1` it was 100 to 1000 nM; in that of `C[C@H]1CN(C2CN(c3cnc4ccc(-c5ccc6oc(N)nc6c5)nc4c3)C2)CCN1`, 100 to 1000 nM. In turn, `CCOC(=O)N1CC=C(c2cnc3ccc(-c4ccc5oc(N)nc5c4)nc3n2)CC1` came in with an IC50 of 100 to 1000 nM. In turn, `C[C@@H]1CN(C2CN(c3cnc4ccc(-c5ccc6oc(N)nc6c5)nc4c3)C2)CCN1C` came in with an IC50 of 100 to 1000 nM.

On to `C[C@H]1COCCN1c1cnc2ccc(-c3ccc4oc(N)nc4c3)nc2n1`, for which the IC50 is 100 to 1000 nM.

The experiment is the same for the next values; noted with them: pc3.
The molecule `CC(=O)Nc1cn2cc(-c3ccc4oc(N)nc4c3)ccc2n1` came in with an IC50 of less than 100 nM. Turning to `O=C(c1cnc2ccc(-c3cnc(Cl)c(NS(=O)(=O)c4ccccc4)c3)cn12)N1CCOCC1`, the IC50 fell in the range of 100 to 1000 nM. In the case of `Cn1c(=O)n(-c2ccc(C(C)(C)C#N)cc2)c2c3cc(-c4ccc5oc(N)nc5c4)ccc3ncc21`, the half-maximal inhibitory concentration (IC50) is less than 100 nM. As to `COC1CN(C(=O)c2cnc3ccc(-c4ccc5oc(N)nc5c4)cn23)C1`, the IC50 was in the range of 100 to 1000 nM. Same read-out and setting: in the case of `C[C@@H]1CN(C2CN(C(=O)c3cnc4ccc(-c5ccc6oc(N)nc6c5)cn34)C2)CCN1C` it was 100 to 1000 nM; in that of `CS(=O)(=O)N1CCN(Cc2cc3nc(-c4ccc5oc(N)nc5c4)nc(N4CCOCC4)c3s2)CC1`, 100 to 1000 nM. The molecule `Nc1nc2cc(-c3ccc4ncc(C(=O)N5CC[C@H](n6cccn6)C5)n4c3)ccc2o1` yielded an IC50 of 100 to 1000 nM. On to `C[C@H]1CN(C2CN(C(=O)c3cnc4ccc(-c5ccc6oc(N)nc6c5)cn34)C2)CCN1C`, for which the IC50 lay within 100 to 1000 nM. Still for that read-out and setting: in the case of `CN1CCC(N(C)C(=O)c2cnc3ccc(-c4ccc5oc(N)nc5c4)cn23)CC1` it was 100 to 1000 nM; in that of `COc1ncc(-c2ccc3ncn(C4CCN(C(C)C)CC4)c(=O)c3c2)cc1NS(=O)(=O)c1ccccc1`, 100 to 1000 nM; in that of `O=C(c1cnc2ccc(-c3cnc(Cl)c(NS(=O)(=O)c4ccc(F)cc4)c3)cn12)N1CCOCC1`, 100 to 1000 nM. `COc1ncc(-c2ccc3ncc(C(=O)N4CCOCC4)n3c2)cc1NS(=O)(=O)c1cccnc1` came in with an IC50 of 100 to 1000 nM.

In turn, `COc1ncc(-c2ccc3ncn(C4CCN(C)CC4)c(=O)c3c2)cc1NS(=O)(=O)c1ccccc1` came in with an IC50 of 100 to 1000 nM.

The experiment is the same for the next values; noted with them: t47d.
Molecule `Nc1nc2cc(-c3ccc4ncc(N5CC(N6CCOCC6)C5)nc4c3)ccc2o1` registered an IC50 of 100 to 1000 nM. `CC(=O)Nc1cn2cc(-c3ccc4oc(N)nc4c3)ccc2n1` registered an IC50 of 100 to 1000 nM. Regarding `Nc1nc2cc(-c3ccc4ncc(C(=O)N5CC[C@@H](O)C5)n4c3)ccc2o1`, the IC50 fell in the range of 100 to 1000 nM. Molecule `Nc1nc2cc(-c3ccc4ncc(N5CC(N6CCS(=O)(=O)CC6)C5)nc4c3)ccc2o1` yielded an IC50 of 100 to 1000 nM. Same read-out and setting: as for `Nc1nc2cc(-c3ccc4ncc(N5CC(N6CCN(CC7CC7)CC6)C5)nc4c3)ccc2o1`, the figure is 100 to 1000 nM; as for `Nc1nc2cc(-c3ccc4ncc(-c5cnn(CCO)c5)nc4c3)ccc2o1`, 100 to 1000 nM; as for `Nc1nc2cc(-c3ccc4ncc(C(=O)Nc5cccnc5)n4c3)ccc2o1`, more than 10000 nM.

As to `C[C@@H]1CN(C(=O)C2CN(c3cnc4ccc(-c5ccc6oc(N)nc6c5)cc4n3)C2)CCN1`, the IC50 lay in the range of 100 to 1000 nM. Regarding `CS(=O)(=O)N1CCN(C(=O)c2cnc3ccc(-c4ccc5oc(N)nc5c4)cn23)CC1`, the half-inhibitory concentration (IC50) fell in the range of 100 to 1000 nM. As to `Cc1nccn1C1CN(c2cnc3ccc(-c4ccc5oc(N)nc5c4)cc3n2)C1`, the IC50 is 100 to 1000 nM. Still for that read-out and setting: in the case of `CN1CCN(C2CN(c3cnc4ccc(-c5ccc6oc(N)nc6c5)cc4n3)C2)CC1` it was 100 to 1000 nM; in that of `Nc1nc2cc(-c3ccc4ncc(N5CCN(C(=O)C6(N)CCC6)CC5)nc4c3)ccc2o1`, 100 to 1000 nM; in that of `Nc1nc2cc(-c3ccc4ncc(N5CCN(C(=O)[C@@H]6CCCN6)CC5)nc4c3)ccc2o1`, 100 to 1000 nM. The same measure, in the same setting: as for `CN1CCN(C(=O)C2CN(c3cnc4ccc(-c5ccc6oc(N)nc6c5)cc4n3)C2)CC1`, the figure is 100 to 1000 nM; as for `CN1CCC(Nc2ncnc3ccc(-c4ccc5oc(N)nc5c4)nc23)CC1`, 100 to 1000 nM. `CN1CC(C(=O)N2CCN(c3cnc4ccc(-c5ccc6oc(N)nc6c5)cc4n3)CC2)C1` displayed an IC50 of 100 to 1000 nM. The same measure, in the same setting: in the case of `CN1CC(C(=O)N2CCC(Nc3ncnc4ccc(-c5ccc6oc(N)nc6c5)cc34)CC2)C1` it was more than 10000 nM. The molecule `CN1CCN(C2CN(C(=O)c3cnc4ccc(-c5ccc6oc(N)nc6c5)cn34)C2)CC1` registered an IC50 of 100 to 1000 nM.

Regarding `Nc1nc2cc(-c3ccc4ncc(N5CCOCC5)nc4c3)ccc2s1`, the IC50 was 100 to 1000 nM. Consider `CC(C)N1CCN(C(=O)C2CN(c3cnc4ccc(-c5ccc6oc(N)nc6c5)cc4n3)C2)CC1`, for which the IC50 lay within 100 to 1000 nM. Still for that read-out and setting: as for `CCNC(=O)c1cnc2ccc(-c3ccc4oc(N)nc4c3)cn12`, the figure is 100 to 1000 nM; as for `Nc1nc2cc(-c3ccc4ncc(N5CCN(CCO)CC5)nc4c3)ccc2o1`, 100 to 1000 nM. The same measure, in the same setting: as for `Nc1nc2cc(-c3ccn4ncc(-c5ccncc5)c4c3)ccc2o1`, the figure is 100 to 1000 nM. In the case of `Nc1nc2cc(-c3ccc4ncc(N5CCN(C(=O)CN6CCCC6)CC5)nc4c3)ccc2o1`, the IC50 was in the range of 100 to 1000 nM. Still for that read-out and setting: as for `CN1CCN(CCNc2cnc3ccc(-c4ccc5oc(N)nc5c4)cc3n2)CC1`, the figure is 100 to 1000 nM; as for `C[C@H]1CN(C(=O)C2CN(c3cnc4ccc(-c5ccc6oc(N)nc6c5)cc4n3)C2)CCN1`, 100 to 1000 nM; as for `CNC(=O)N1CCN(c2cnc3ccc(-c4ccc5oc(N)nc5c4)cc3n2)CC1`, 100 to 1000 nM. Molecule `Nc1noc2cc(-c3ccc4nccc(-c5ccncc5)c4c3)ccc12` displayed an IC50 of 100 to 1000 nM.

The molecule `Nc1nc2cc(-c3ccc4ncc(N5CCCCC5)nc4c3)ccc2o1` displayed an IC50 of more than 10000 nM. `Nc1nc2cc(-c3ccc4ncc(N5CC(N6CCN(CCO)CC6)C5)nc4c3)ccc2o1` returned an IC50 of 100 to 1000 nM. Regarding `Nc1nc2cc(-c3ccc4ncc(N5CC(C(=O)N6CCOCC6)C5)nc4c3)ccc2o1`, the IC50 is 100 to 1000 nM. Still for that read-out and setting: as for `Nc1nc2cc(-c3ccc4ncc(NC5CCOCC5)nc4c3)ccc2o1`, the figure is 100 to 1000 nM; as for `CC(C)(N)C(=O)N1CCN(c2cnc3ccc(-c4ccc5oc(N)nc5c4)cc3n2)CC1`, 100 to 1000 nM. `Nc1nc2cc(-c3ccc4ncc(N5CCN(C(=O)[C@H](N)CO)CC5)nc4c3)ccc2o1` came in with an IC50 of 100 to 1000 nM.

`C[C@H](N)C(=O)N1CCN(c2cnc3ccc(-c4ccc5oc(N)nc5c4)cc3n2)CC1` displayed an IC50 of 100 to 1000 nM. The same measure, in the same setting: in the case of `CC(C)[C@@H](N)C(=O)N1CCN(c2cnc3ccc(-c4ccc5oc(N)nc5c4)cc3n2)CC1` it was 100 to 1000 nM. The molecule `CCN(CC)CC(=O)N1CCN(c2cnc3ccc(-c4ccc5oc(N)nc5c4)cc3n2)CC1` yielded a concentration for half-maximal inhibition (IC50) of 100 to 1000 nM. On the same count and under the same terms, as for `CC1CN(c2cnc3ccc(-c4ccc5oc(N)nc5c4)cc3n2)CCN1` (centres undefined), the figure is more than 10000 nM; as for `Nc1nc2cc(-c3ccc4ncc(C(=O)NCCCN5CCCC5)n4c3)ccc2o1`, 100 to 1000 nM; as for `Nc1nc2cc(-c3ccc4ncc(N5CCNC(=O)C5)nc4c3)ccc2o1`, 100 to 1000 nM. Consider `CC(=O)N1CCC(Nc2ncnc3ccc(-c4ccc5oc(N)nc5c4)nc23)CC1`, for which the IC50 lay within 100 to 1000 nM. On the same count and under the same terms, in the case of `Nc1nc2cc(-c3ccc4ncc(C(=O)NCCO)n4c3)ccc2o1` it was 100 to 1000 nM; in that of `Nc1nc2cc(-c3ccc4ncc(N5CCC(N6CCOCC6)CC5)nc4c3)ccc2o1`, 100 to 1000 nM; in that of `Nc1nc2cc(-c3ccc4ncnc(OC5CCOCC5)c4c3)ccc2o1`, 100 to 1000 nM. Same read-out and setting: as for `CN1CCN(c2cnc3ccc(-c4ccc5oc(N)nc5c4)cc3n2)CC1=O`, the figure is 100 to 1000 nM; as for `CS(=O)(=O)CCN1CCN(c2cnc3ccc(-c4ccc5oc(N)nc5c4)cc3n2)CC1`, 100 to 1000 nM; as for `C[C@@H]1CN(C2CN(c3cnc4ccc(-c5ccc6oc(N)nc6c5)cc4n3)C2)CCN1`, 100 to 1000 nM. For the molecule `CC(=O)N1CCC(N(C)c2ncnc3ccc(-c4ccc5oc(N)nc5c4)cc23)CC1`, the IC50 lay in the range of 100 to 1000 nM. Same read-out and setting: as for `Nc1nc2cc(-c3ccc4ncc(N5CCN(CC6CC6)CC5)nc4c3)ccc2o1`, the figure is 100 to 1000 nM; as for `Nc1nc2cc(-c3ccc4ncc(C(=O)N5CC[C@H](O)C5)n4c3)ccc2o1`, 100 to 1000 nM.

These data come from the Kinase Knowledgebase extract (Sharma et al. 2016).
